According to the CheMixHub viscosity set:

Test: xn = mol fraction of the nth substance listed

ClC(Cl)=C(Cl)Cl + CO
viscosity [mPa·s], 101.33 kPa
Details | x2 = 0.1436 | x2 = 0.2974 | x2 = 0.456 | x2 = 0.6044 | x2 = 0.7514 | x2 = 0.9006
293.15 K | 0.762 | 0.721 | 0.683 | 0.639 | 0.585 | 0.535
303.15 K | 0.705 | 0.667 | 0.63 | 0.59 | 0.552 | 0.512
313.15 K | 0.6515 | 0.622 | 0.592 | 0.561 | 0.529 | 0.497

ClC(Cl)=C(Cl)Cl + ClC(Cl)(Cl)Cl
Details | viscosity [mPa·s]
298.15 K, 101 kPa, x2 = 0.0973 | 0.8311
298.15 K, 101 kPa, x2 = 0.1594 | 0.8241
298.15 K, 101 kPa, x2 = 0.244 | 0.8182
298.15 K, 101 kPa, x2 = 0.3103 | 0.8153
298.15 K, 101 kPa, x2 = 0.4139 | 0.813
298.15 K, 101 kPa, x2 = 0.4636 | 0.8122
298.15 K, 101 kPa, x2 = 0.5633 | 0.814
298.15 K, 101 kPa, x2 = 0.63 | 0.8216
298.15 K, 101 kPa, x2 = 0.6339 | 0.8211
298.15 K, 101 kPa, x2 = 0.7582 | 0.8392
298.15 K, 101 kPa, x2 = 0.8067 | 0.8482
298.15 K, 101 kPa, x2 = 0.9135 | 0.8744
303.15 K, 101.33 kPa, x1 = 0.3238 | 0.818
303.15 K, 101.33 kPa, x1 = 0.402 | 0.814
303.15 K, 101.33 kPa, x1 = 0.56 | 0.808
303.15 K, 101.33 kPa, x1 = 0.6543 | 0.801
303.15 K, 101.33 kPa, x1 = 0.7629 | 0.8
303.15 K, 101.33 kPa, x1 = 0.8308 | 0.798
303.15 K, 101.33 kPa, x1 = 0.9128 | 0.797

c1ccccc1 + CC#N
101 kPa
Details | viscosity [mPa·s]
298.15 K, x2 = 0.0325 | 0.5825
298.15 K, x2 = 0.0341 | 0.58
298.15 K, x2 = 0.0416 | 0.5745
298.15 K, x2 = 0.0854 | 0.574
298.15 K, x2 = 0.142 | 0.5155
298.15 K, x2 = 0.2097 | 0.493
298.15 K, x2 = 0.2578 | 0.4835
298.15 K, x2 = 0.3076 | 0.479
298.15 K, x2 = 0.3588 | 0.459
298.15 K, x2 = 0.4192 | 0.4365
298.15 K, x2 = 0.4751 | 0.4295
298.15 K, x2 = 0.5205 | 0.4045
298.15 K, x2 = 0.5786 | 0.394
298.15 K, x2 = 0.6344 | 0.388
298.15 K, x2 = 0.6908 | 0.375
298.15 K, x2 = 0.7377 | 0.379
298.15 K, x2 = 0.7901 | 0.369
298.15 K, x2 = 0.7943 | 0.3555
298.15 K, x2 = 0.8416 | 0.3535
298.15 K, x2 = 0.8962 | 0.3455
298.15 K, x2 = 0.9472 | 0.3275
308.15 K, x1 = 0.1018 | 0.3278
308.15 K, x1 = 0.2042 | 0.3407
308.15 K, x1 = 0.303 | 0.3576
308.15 K, x1 = 0.4008 | 0.378
308.15 K, x1 = 0.4892 | 0.3939
308.15 K, x1 = 0.5921 | 0.4163
308.15 K, x1 = 0.6906 | 0.4413
308.15 K, x1 = 0.8017 | 0.4762
308.15 K, x1 = 0.8951 | 0.4954

CCCCCO + CN(C)C=O
298.15 K, 101 kPa
Details | viscosity [mPa·s]
x2 = 0.4261 | 1.395
x2 = 0.5467 | 1.568

ClC(Cl)=C(Cl)Cl + CC#N
303.15 K, 101.32 kPa
Details | viscosity [mPa·s]
x2 = 0.1294 | 0.7489
x2 = 0.1929 | 0.7334
x2 = 0.3101 | 0.699
x2 = 0.4022 | 0.6632
x2 = 0.4671 | 0.631
x2 = 0.5673 | 0.5728
x2 = 0.6707 | 0.505
x2 = 0.7358 | 0.4619
x2 = 0.846 | 0.3947
x2 = 0.9295 | 0.3522

O=[N+]([O-])c1ccccc1 + CCOC(C)=O
viscosity [mPa·s], 101 kPa
Details | 298.15 K | 308.15 K
x1 = 0.1753 | 0.582 | –
x1 = 0.4777 | 0.889 | –
x1 = 0.6887 | 1.204 | –
x2 = 0.0466 | 1.71 | 1.482
x2 = 0.1486 | 1.535 | 1.346
x2 = 0.2512 | 1.364 | 1.208
x2 = 0.3117 | 1.204 | –
x2 = 0.3496 | 1.206 | 1.077
x2 = 0.4483 | 1.057 | 0.95
x2 = 0.4935 | 0.992 | 0.893
x2 = 0.5223 | 0.889 | –
x2 = 0.5538 | 0.909 | 0.821
x2 = 0.6497 | 0.785 | 0.711
x2 = 0.7513 | 0.666 | 0.604
x2 = 0.8247 | 0.582 | –
x2 = 0.8488 | 0.564 | 0.512
x2 = 0.9411 | 0.478 | 0.433
